Experimental data from PubChem BioAssay (NCI).
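Values below derive from 48-hour exposures of cells grown in 96-well plates, with endpoints linearly interpolated between the two concentrations bracketing the appropriate inhibition level. TGI: concentration producing complete growth inhibition.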

Key:
Experiment in all cases: NCI-60 cell line screen, 48 h
[1] = system: SF-539 CNS
[2] = system: OVCAR-8 ovarian
[3] = system: SK-MEL-2 melanoma
[4] = system: SF-268 CNS
[5] = system: HL-60(TB) leukemia
[6] = system: SK-MEL-5 melanoma
[7] = system: NCI-H522 lung
[8] = system: SW-620 colon
[9] = system: KM20L2 colon
[10] = system: XF 498 CNS
[11] = system: COLO 205 colon
[12] = system: NCI-H226 lung
[13] = system: OVCAR-4 ovarian
[14] = system: HT29 colon
[15] = system: HOP-62 NSCLC
[16] = system: MALME-3M melanoma
[17] = system: KM12 colon
[18] = system: EKVX NSCLC
[19] = system: UACC-257 melanoma
[20] = system: 786-0 renal
[21] = system: IGROV1 ovarian
[22] = system: U251 CNS
[23] = system: NCI-H460 lung
[24] = system: SF-295 CNS
[25] = system: RPMI-8226 leukemia
[26] = system: SN12C renal
[27] = system: SNB-78 CNS
[28] = system: CAKI-1 renal
[29] = system: A549 NSCLC
[30] = system: SNB-19 CNS
[31] = system: SK-MEL-28 melanoma
[32] = system: RXF 393 renal
[33] = system: M19-MEL melanoma
[34] = system: K-562 leukemia
[35] = system: DMS 114 small cell lung
[36] = system: DLD-1 colon
[37] = system: M14 melanoma
[38] = system: TK-10 renal
[39] = system: OVCAR-3 ovarian
[40] = system: A498 renal
[41] = system: UO-31 renal
[42] = system: ACHN renal
[43] = system: LOX IMVI melanoma
[44] = system: CCRF-CEM leukemia
[45] = system: SNB-75 CNS
[46] = system: RXF-631 renal
[47] = system: NCI-H23 lung
[48] = system: LXFL 529 NSCLC
[49] = system: MOLT-4 leukemia
[50] = system: SK-OV-3 ovarian
[51] = system: OVCAR-5 ovarian
[52] = system: HOP-92 NSCLC
[53] = system: HCC-2998 colon

Measured: TGI

CCOc1ccc(NC(=O)C2=C(C)NC(C)=C(C(=O)Nc3ccc(OCC)cc3)C2c2ccc(O)c(OC)c2)cc1
52 µM: [10]
66.7 µM: [40]
92.9 µM: [15]
53.9 µM: [52]
59.2 µM: [45]
83.6 µM: [1]
76.1 µM: [53]
> 100 µM: all other assays above
